Test results taken from patent publication US7964607B2, “Pyrazolo[3,4-d]pyrimidine compounds” (Pfizer Inc., priority 2007, dated 2011).

molecular target: T1, human recombinant PDE9 enzyme (Homo sapiens, UniProt O76083); assay: Phosphodiesterase 9 (PDE9) inhibitory activity, Scintillation Proximity (SPA) assay; assay type: biochemical; conditions: human recombinant PDE9 from SF-9 cells; 50 nM [3H]cGMP; room temperature, 30 min; additional compounds Ex. 115-228; read-out: G5678A (U):IC50
T1 construct: made in house; host or cells: SF-9 insect cells
Summary of the method: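 Scintillation proximity read-out of [3H]cGMP hydrolysis after 30 min at room temperature, with enzyme addition starting the reaction. The enzyme was human recombinant PDE9 expressed in SF-9 cells, titrated to keep substrate turnover at 20% or less. Compound wells held 2% DMSO final, and background was defined with excess PDE inhibitor.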

T1 sequence (O76083 whole entry): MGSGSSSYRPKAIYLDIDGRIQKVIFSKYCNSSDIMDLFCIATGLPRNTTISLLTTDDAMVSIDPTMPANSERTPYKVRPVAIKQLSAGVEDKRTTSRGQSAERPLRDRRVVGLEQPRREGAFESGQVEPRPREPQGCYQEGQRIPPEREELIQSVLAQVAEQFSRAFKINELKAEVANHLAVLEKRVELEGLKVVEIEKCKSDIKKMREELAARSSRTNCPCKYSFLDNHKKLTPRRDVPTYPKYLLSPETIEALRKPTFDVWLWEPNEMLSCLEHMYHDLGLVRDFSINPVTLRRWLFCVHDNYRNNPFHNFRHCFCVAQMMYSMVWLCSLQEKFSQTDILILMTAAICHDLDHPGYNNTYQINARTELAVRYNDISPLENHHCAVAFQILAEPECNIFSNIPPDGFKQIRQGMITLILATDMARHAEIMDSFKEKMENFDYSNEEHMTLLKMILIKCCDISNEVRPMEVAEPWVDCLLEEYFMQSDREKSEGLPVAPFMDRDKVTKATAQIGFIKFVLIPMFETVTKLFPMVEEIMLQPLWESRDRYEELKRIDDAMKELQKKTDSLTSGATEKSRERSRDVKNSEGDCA

| IC50 [nM] | Structure (SMILES) |
| --- | --- |
| 27.1 | COc1ccc(CN2C[C@@H](C)[C@H](c3nc4c(cnn4C4CCCC4)c(=O)[nH]3)C2)cc1OC (racemic) [Example 176, 1-cyclopentyl-6-[(3,4-trans)-1-(3,4-dimethoxybenzyl)-4-methylpyrrolidin-3-yl]-1,5-dihydro-4H-pyrazolo[3,4-d]pyrimidin-4-one] |
| 42.2 | Cc1cnc(CN2C[C@@H](C)[C@H](c3nc4c(cnn4C4CCCC4)c(=O)[nH]3)C2)cn1 (racemic) [Example 177, 1-cyclopentyl-6-{(3,4-trans)-4-methyl-1-[(5-methylpyrazin-2-yl)methyl]pyrrolidin-3-yl)-1,5-dihydro-4H-pyrazolo[3,4-d]pyrimidin-4-one] |
| 44.7 | C[C@@H]1CN(Cc2cn3ccccc3n2)C[C@H]1c1nc2c(cnn2C2CCCC2)c(=O)[nH]1 (racemic) [Example 178, 1-cyclopentyl-6-[(3,4-trans)-1-(imidazo[1,2-a]pyridin-2-ylmethyl)-4-methylpyrrolidin-3-yl]-1,5-dihydro-4H-pyrazolo[3,4-d]pyrimidin-4-one] |
| 47.2 | C[C@@H]1CN(Cc2coc(-c3ccccc3)n2)C[C@H]1c1nc2c(cnn2C2CCCC2)c(=O)[nH]1 (racemic) [Example 179, 1-cyclopentyl-6-{(3,4-trans)-4-methyl-1-[(2-phenyl-1,3-oxazol-4-yl)methyl]pyrrolidin-3-yl}-1,5-dihydro-4H-pyrazolo[3,4-d]pyrimidin-4-one] |
| 134 | CC(C)Oc1ccccc1CN1C[C@@H](C)[C@H](c2nc3c(cnn3C3CCCC3)c(=O)[nH]2)C1 (racemic) [Example 181, 1-cyclopentyl-6-[(3,4-trans)-1-(2-isopropoxybenzyl)-4-methylpyrrolidin-3-yl]-1,5-dihydro-4H-pyrazolo[3,4-d]pyrimidin-4-one] |
| 22.5 | C[C@@H]1CN(Cc2cc3ccccc3nn2)C[C@H]1c1nc2c(cnn2C2CCCC2)c(=O)[nH]1 (racemic) [Example 182, 6-[(3,4-trans)-1-(cinnolin-3-ylmethyl)-4-methylpyrrolidin-3-yl]-1-cyclopentyl-1,5-dihydro-4H-pyrazalo[3,4-d]pyrimidin-4-one] |
| 29.8 | C[C@@H]1CN(Cc2cccc(OC(F)F)c2)C[C@H]1c1nc2c(cnn2C2CCCC2)c(=O)[nH]1 (racemic) [Example 183, 1-cyclopentyl-6-{(3,4-trans)-1-[3-(difluoromethoxy)benzyl]-4-methylpyrrolidin-3-yl}-1,5-dihydro-4H-pyrazolo[3,4-d]pyrimidin-4-one] |
| 90 | Cc1cc(CN2C[C@@H](C)[C@H](c3nc4c(cnn4C4CCCC4)c(=O)[nH]3)C2)ccc1F (racemic) [Example 184, 1-cyclopentyl-6-[(3,4-trans)-1-(4-fluoro-3-methylbenzyl)-4-methylpyrrolidin-3-yl]-1,5-dihydro-4H-pyrazolo[3,4-d]pyrimidin-4-one] |
| 33.5 | C[C@@H]1CN(Cc2ccc(-n3cccn3)cc2)C[C@H]1c1nc2c(cnn2C2CCCC2)c(=O)[nH]1 (racemic) [Example 185, 1-cyclopentyl-6-{(3,4-trans)-4-methyl-1-[4-(1H-pyrazol-1-yl)benzyl]pyrrolidin-3-yl}-1,5-dihydro-4H-pyrazolo[3,4-d]pyrimidin-4-one] |
| 155 | Cc1ccn2c(CN3C[C@@H](C)[C@H](c4nc5c(cnn5C5CCCC5)c(=O)[nH]4)C3)c(C)nc2c1 (racemic) [Example 186, 1-cyclopentyl-6-{(3,4-trans)-1-[(2,7-dimethylimidazo[1,2-a]pyridin-3-yl)methyl]-4-methylpyrrolidin-3-yl}-1,5-dihydro-4H-pyrazolo[3,4-d]pyrimidin-4-one] |
| 70.9 | C[C@@H]1CN(Cc2cc(Cl)cc(Cl)c2)C[C@H]1c1nc2c(cnn2C2CCCC2)c(=O)[nH]1 (racemic) [Example 187, 1-cyclopentyl-6-[(3,4-trans)-1-(3,5-dichlorobenzyl)-4-methylpyrrolidin-3-yl]-1,5-dihydro-4H-pyrazolo[3,4-d]pyrimidin-4-one] |
| 72.7 | CC(C)Oc1ccc(CN2C[C@@H](C)[C@H](c3nc4c(cnn4C4CCCC4)c(=O)[nH]3)C2)cc1 (racemic) [Example 188, 1-cyclopentyl-6-[(3,4-trans)-1-(4-isopropoxybenzyl)-4-methylpyrrolidin-3-yl]-1,5-dihydro-4H-pyrazolo[3,4-d]pyrimidin-4-one] |
| 23.7 | C[C@@H]1CN(Cc2ccnc(C(C)(C)O)c2)C[C@H]1c1nc2c(cnn2C2CCCC2)c(=O)[nH]1 (racemic) [Example 189, 1-cyclopentyl-6-[(3,4-trans)-1-{[2-(1-hydroxy-1-methylethyl)pyridin-4-yl]methyl}-4-methylpyrrolidin-3-yl]-1,5-dihydro-4H-pyrazolo[3,4-d]pyrimidin-4-one] |
| 55.4 | C[C@@H]1CN(Cc2nc3c(s2)CCCC3)C[C@H]1c1nc2c(cnn2C2CCCC2)c(=O)[nH]1 (racemic) [Example 190, 1-cyclopentyl-6-[(3,4-trans)-4-methyl-1-(4,5,6,7-tetrahydro-1,3-benzothiazol-2-ylmethyl)pyrrolidin-3-yl]-1,5-dihydro-4H-pyrazolo(3,4-d]pyrimidin-4-one] |
| 198 | Cc1cc(C)c(CN2C[C@@H](C)[C@H](c3nc4c(cnn4C4CCCC4)c(=O)[nH]3)C2)c(C)c1 (racemic) [Example 191, 1-cyclopentyl-6-[(3,4-trans)-1-(mesitylmethyl)-4-methylpyrrolidin-3-yl]-1,5-dihydro-4H-pyrazolo[3,4-d]pyrimidin-4-one] |
| 236 | C[C@@H]1CN(Cc2c(Cl)cccc2Cl)C[C@H]1c1nc2c(cnn2C2CCCC2)c(=O)[nH]1 (racemic) [Example 192, 1-cyclopentyl-6-[(3,4-trans)-1-(2,6-dichlorobenzyl)-4-methylpyrrolidin-3-yl]-1,5-dihydro-4H-pyrazolo[3,4-d]pyrimidin-4-one] |
| 57.7 | C[C@@H]1CN(Cc2ccc(C#N)cc2)C[C@H]1c1nc2c(cnn2C2CCCC2)c(=O)[nH]1 (racemic) [Example 193, 4-{[(3,4-trans)-3-(1-cyclopentyl-4-oxo-4,5-dihydro-1H-pyrazolo[3,4-d]pyrimidin-6-yl)-4-methylpyrrolidin-1-yl]methyl}benzonitrile] |
| 54.7 | COc1ccc(F)c(CN2C[C@@H](C)[C@H](c3nc4c(cnn4C4CCCC4)c(=O)[nH]3)C2)c1 (racemic) [Example 194, 1-cyclopentyl-6-[(3,4-trans)-1-(2-fluoro-5-methoxybenzyl)-4-methylpyrrolidin-3-yl]-1,5-dihydro-4H-pyrazolo[3,4-d]pyrimidin-4-one] |
| 187 | COc1c(C)cnc(CN2C[C@@H](C)[C@H](c3nc4c(cnn4C4CCCC4)c(=O)[nH]3)C2)c1C (racemic) [Example 196, 1-cyclopentyl-6-{(3,4-trans)-1-[(4-methoxy-3,5-dimethylpyridin-2-yl)methyl]-4-methylpyrrolidin-3-yl}-1,5-dihydro-4H-pyrazolo[3,4-d]pyrimidin-4-one] |
| 53.5 | Cc1cc(C)cc(CN2C[C@@H](C)[C@H](c3nc4c(cnn4C4CCCC4)c(=O)[nH]3)C2)c1 (racemic) [Example 197, 1-cyclopentyl-6-[(3,4-trans)-1-(3,5-dimethylbenzyl)-4-methylpyrrolidin-3-yl]-1,5-dihydro-4H-pyrazolo[3,4-d]pyrimidin-4-one] |
| 93.6 | Cc1ccc(CN2C[C@@H](C)[C@H](c3nc4c(cnn4C4CCCC4)c(=O)[nH]3)C2)cc1C (racemic) [Example 198, 1-cyclopentyl-6-[(3,4-trans)-1-(3,4-dimethylbenzyl)-4-methylpyrrolidin-3-yl]-1,5-dihydro-4H-pyrazolo[3,4-d]pyrimidin-4-one] |
| 35.3 | C[C@@H]1CN(Cc2nc3ccccc3n2C)C[C@H]1c1nc2c(cnn2C2CCCC2)c(=O)[nH]1 (racemic) [Example 199, 1-cyclopentyl-6-{(3,4-trans)-4-methyl-1-[(1-methyl-1H-benzimidazol-2-yl)methyl]pyrrolidin-3-yl}-1,5-dihydro-4H-pyrazolo[3,4-d]pyrimidin-4-one] |
| 176 | C[C@@H]1CN(Cc2ccc3c(c2)OCCN3C)C[C@H]1c1nc2c(cnn2C2CCCC2)c(=O)[nH]1 (racemic) [Example 200, 1-cyclopentyl-6-{(3,4-trans)-4-methyl-1-[(4-methyl-3,4-dihydro-2H-1,4-benzoxazin-7-yl)methyl]pyrrolidin-3-yl}-1,5-dihydro-4H-pyrazolo[3,4-d]pyrimidin-4-one] |
| 146 | C[C@@H]1CN(CCCc2ccccc2)C[C@H]1c1nc2c(cnn2C2CCCC2)c(=O)[nH]1 (racemic) [Example 201, 1-cyclopentyl-6-[(3,4-trans)-4-methyl-1-(3-phenylpropyl)pyrrolidin-3-yl]-1,5-dihydro-4H-pyrazolo[3,4-d]pyrimidin-4-one] |
| 104 | C[C@@H]1CN(Cc2ccccc2C(F)(F)F)C[C@H]1c1nc2c(cnn2C2CCCC2)c(=O)[nH]1 (racemic) [Example 202, 1-cyclopentyl-6-{(3,4-trans)-4-methyl-1-[2-(trifluoromethyl)benzyl]pyrrolidin-3-yl}-1,5-dihydro-4H-pyrazolo[3,4-d]pyrimidin-4-one] |
| 83.7 | C[C@@H]1CN(CCCC(F)(F)F)C[C@H]1c1nc2c(cnn2C2CCCC2)c(=O)[nH]1 (racemic) [Example 203, 1-cyclopentyl-6-{(3,4-trans)-4-methyl-1-(4,4,4-trifluorobutyl)pyrrolidin-3-yl]-1,5-dihydro-4H-pyrazolo[3,4-d]pyrimidin-4-one] |
| 9.56 | COc1cccc(CN2C[C@@H](C)[C@H](c3nc4c(cnn4C4CCCC4)c(=O)[nH]3)C2)c1 (racemic) [Example 204, 1-cyclopentyl-6-[(3,4-trans)-1-(3-methoxybenzyl)-4-methylpyrrolidin-3-yl]-1,5-dihydro-4H-pyrazolo[3,4-d]pyrimidin-4-one] |
